Test results reported in US20240165274A1, “METHODS OF DETECTING SYSTEMIC AMYLOIDOSIS VIA BINDING TO MISFOLDED OR AGGREGATED PROTEIN” (Amydis, Inc., priority 2021, published 2024).
pKd: −log10 of the molar value.

How the values were obtained:
[1] = biological target: T1, aggregated TTR (Homo sapiens, UniProt P02766); test: Fluorescence spectra of Compound 1 with TTR aggregates; details: excitation 440 nm; for Fluorescence fold increase: Compound 1 4 μM, emission 565 nm, RFI over Compound 1 alone
Method: Several aggregated TTR samples were prepared using different conditions as described below. • Aggregate A was prepared by resuspending TTR in 50 mM glycine buffer at a pH of about 3.6 and further incubating the same for 24 hours at room temperature. • Aggregate B1 was prepared by resuspending TTR in water at a pH of about 7.4, and further incubating the same for 7 days with stirring (200 rpm) maintained at 37° C. • Aggregate B2 was prepared by resuspending TTR in water at a pH of about 7.4, and further incubating the same for 14 days with stirring (200 rpm) maintained at 37° C.
Compound 1 (4 μM) was prepared with or without Aggregate B1 in 1× phosphate-buffered saline (PBS). The absorption, fluorescence, and excitation spectra were taken for both samples. The excitation wavelength was optimized to be 440 nm. The emission spectra thus received were adjusted against a blank solvent control to obtain relative fluorescence intensity (RFI) as a function of wavelengths.
Further, fluorescence spectra were taken on mixtures of Compound I (4 μM) with Aggregate A, B1, or B2, respectively, each at the concentration of 5 μM, at the emission wavelength of 565 nm, when excited at 440 nm. The increases in RFI over Compound 1 alone were calculated and are illustrated in Table 1: […]

[2] = biological target: T1, aggregated TTR; test: Binding affinity for Compound 1 with aggregated TTR (fluorescence titration, one site specific binding); details: 5 μM TTR, 4% DMSO/PBS pH 7.4; Compound 1 0 to 10 μM; RFI at λmax(em); FIG. 2
Method: A solution of DMSO/PBS (6 μL DMSO in 144 μL PBS, pH 7.4) was prepared as a blank control. Further, a 250 μM solution of Compound 1 in DMSO was prepared. The following samples were then prepared in triplicate while keeping a constant 5 μM TTR concentration in 4% DMSO/PBS:
Emission spectra were taken for each sample and adjusted against the blank over the range of 445-700 nm. RFI at λmax(em) was determined for each sample. RFI was then plotted against the increasing concentration of Compound 1 over the range of 0 to 10 μM using a one site specific binding algorithm. The binding affinity (Kd) was determined to be 0.3+/−0.1 μM. This is illustrated in FIG. 2.

[3] = tested on: TTR deposits in human tissues; test: Staining of FFPE human tissue sections with vitreous amyloid, co-stained with TTR antibody; details: compound 60 μM, 30 minutes; adjacent sections stained with Congo red and H&E; present-tense example, binding 'contemplated'
Method: The following protocol was adopted for staining Formalin-Fixed Paraffin Embedded (FFPE) tissues: • 1. Deparaffinization and hydration of tissue sections: • Pre-heat @ 60° C. 1 hour • Place slides in holders and treat with the clearing agent xylene (paraffin solvent) and a series of graded ethanol (EtOH) as follows: • i. 100% xylene—5 min • ii. 100% xylene—5 min • iii. 50%/50% xylene/100% EtOH—3 min • iv. 100% EtOH—3 min • v. 95% EtOH—3 min • vi. 70% EtOH—3 min • vii. 50% EtOH—3 min • viii. Water—2×3 min. • 2. Antigen retrieval: incubate in 99% formic acid for 5 minutes. • 3. Wash with distilled water for 5 minutes. Repeat this step two times. • 4. Pre-heat 10 mM citrate buffer pH 6.0 to boiling. • 5. Place slides in staining chamber with heated citrate buffer for 20 minutes. • 6. Cool in water bath. Wash with distilled water for 5 minutes. Repeat this step two times. • 7. […]
Sections from tissues of vitreous amyloid with known TTR mutation (paraffin embedded tissue blocks) and an autopsy eyeball with vitreous amyloid (paraffin embedded organ) are respectively stained with hematoxylin and eosin (H&E) and Congo red to mark regions with amyloidosis. […] It is contemplated that Compound 1 binds to TTR deposits in human tissues and undergoes an increase in fluorescence emission in a manner similar to its increase in fluorescence in vitro in the presence of aggregated TTR as described in earlier examples.

Work on `COCCOCCOCCOC(=O)/C(C#N)=C/c1ccc2cc(N3CCCCC3)ccc2c1` [Compound 1] yielded a Fluorescence fold increase ([1]; Aggregate A 5 μM) of 4.6 fold, a Fluorescence fold increase ([1]; Aggregate B1 5 μM) of 2.3 fold and a Fluorescence fold increase ([1]; Aggregate B2 5 μM) of 2.5 fold. The “increase of relative fluorescence intensity (RFI) in presence of aggregate” value ([1]; Compound 1 4 μM with vs without Aggregate B1 in 1× PBS, FIG. 1) was “about 3.2”, the pKd [2] was 6.52 and the “regions of hyperfluorescence versus areas of amyloidosis” value [3] was “correspond to areas of amyloidosis defined using Congo Red and H&E stains”.
